Measured values: patent US20240352536A1, “Assay for Predicting Risk of Capecitabine-Induced Toxicity in a Subject” (Oxford University Innovation Ltd., priority 2021, published 2024)

Key:
[1] = molecular target: T1, dihydropyrimidine dehydrogenase (DPYD) (Homo sapiens, UniProt Q12882); settings: cited from earlier work
T1 construct: degraded in the liver by dihydropyrimidine dehydrogenase (DPYD); host or cells: liver (in vivo, endogenous enzyme)
T1 sequence (Q12882 4-1025): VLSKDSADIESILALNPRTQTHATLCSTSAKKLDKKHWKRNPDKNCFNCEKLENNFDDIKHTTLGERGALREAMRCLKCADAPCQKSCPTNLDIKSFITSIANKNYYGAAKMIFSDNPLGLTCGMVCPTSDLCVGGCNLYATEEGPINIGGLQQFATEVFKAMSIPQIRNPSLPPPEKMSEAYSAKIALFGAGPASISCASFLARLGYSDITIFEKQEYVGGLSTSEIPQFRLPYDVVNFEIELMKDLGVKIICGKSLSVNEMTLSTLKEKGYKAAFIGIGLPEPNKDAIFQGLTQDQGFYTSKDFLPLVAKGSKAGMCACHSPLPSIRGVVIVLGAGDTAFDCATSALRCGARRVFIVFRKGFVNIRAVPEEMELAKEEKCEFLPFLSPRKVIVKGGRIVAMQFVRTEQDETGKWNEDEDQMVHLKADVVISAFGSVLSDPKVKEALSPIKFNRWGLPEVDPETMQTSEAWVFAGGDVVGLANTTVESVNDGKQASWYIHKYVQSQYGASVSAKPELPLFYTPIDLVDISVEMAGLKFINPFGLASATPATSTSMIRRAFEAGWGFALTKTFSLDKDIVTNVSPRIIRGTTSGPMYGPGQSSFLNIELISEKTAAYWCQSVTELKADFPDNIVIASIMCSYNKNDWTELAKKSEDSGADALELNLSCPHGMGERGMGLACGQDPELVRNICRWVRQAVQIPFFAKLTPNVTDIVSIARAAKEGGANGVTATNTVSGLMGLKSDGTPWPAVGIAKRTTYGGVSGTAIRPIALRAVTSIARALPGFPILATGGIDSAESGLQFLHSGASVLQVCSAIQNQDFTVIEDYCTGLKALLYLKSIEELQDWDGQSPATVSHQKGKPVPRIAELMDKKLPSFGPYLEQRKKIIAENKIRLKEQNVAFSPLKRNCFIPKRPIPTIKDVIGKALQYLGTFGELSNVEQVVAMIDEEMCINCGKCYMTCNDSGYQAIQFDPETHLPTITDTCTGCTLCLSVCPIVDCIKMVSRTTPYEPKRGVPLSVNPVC

[2] = cited from earlier work
[3] = QUASAR2 trial: adverse events graded after each treatment cycle with NCI CTCAE version 3.0; assay type: in vivo, human
Procedure: The QUASAR2 study (http://www.octo-oxford.org.uk/alltrials/infollowup/q2.html; http://www.controlled-trials.com/ISRCTN45133151/) is a phase III randomised controlled trial of capecitabine (Xeloda) (1250 mg/m2 twice daily d1-14 every 3 weeks, total of 8 cycles)+/−bevacizumab (7.5 mg/kg every three weeks) following resection of stage II/III CRC. Patients were entered into the study between July 2005 and December 2011 at 123 UK and 81 non-UK sites. Of 1119 patients with blood collected as of July 2010, 1046 were selected for study based on availability of clinical data and informed consent.
Adverse events were graded following each treatment cycle using the NCI Common Toxicity Criteria for Adverse Events (CTCAE) version 3.0. Common capecitabine-induced toxicities—diarrhoea, nausea and vomiting, mucositis/stomatitis, neutropaenia, thrombocytopaenia, and HFS—were analysed individually and also in combination as “global” toxicity. Adverse events were categorised as low (CTCAE grade 0/1/2) and high (CTCAE grade 3/4/5 at any treatment cycle). Hypertension and proteinuria were clearly related to bevacizumab (˜10-fold higher incidence) and were not included in the analysis.
Genome wide SNP genotypes and per treatment cycle toxicity data was available for 930 patients with stage II and III colorectal cancer treated with capecitabine in the QUASAR2 trial. […] Genotype data was imputed using IMPUTE2 and the UK10K and 1000 genomes merged reference panels. Common Terminology Criteria for Adverse Events (CTCAE) v3.0 was used to grade toxicity events. Patients with ≥grade 3 toxicities in the first two treatment cycles and across all cycles were coded as cases for analysis. Binary coded variables were generated for capecitabine-induced toxicities: diarrhoea, haematological, hand-foot syndrome, mucositis and vomiting. The mucositis toxicity variable captured cases with mucositis and/or stomatitis and haematological toxicity consisted of neutropenia and/or thrombocytopenia cases. A global toxicity phenotype was also analysed with cases having any grade 3 event of one of the aforementioned toxicities. The study was powered at 80% to detect variants with MAF>10% having effect sizes≥2. Association testing was performed using SNPTEST v2.5. The two QUASAR2 trial arms (capecitabine alone and capecitabine plus bevacizumab) were analysed separately and then meta-analysed using META v1.7. […] Gene annotation of the outputs was performed using Variant Effect Predictor (VEP) and ANNOVAR to determine the impact of each variant and distance to the nearest gene. Top independent SNPs were identified from multi-SNP-based conditional and joint association (COJO) analysis using Genome-wide Complex Trait Analysis (GCTA). V1.93.2. Receiver operator curve (ROC) analysis was performed in statistical software R.

[4] = early onset, Cycles 1 & 2 (n = 930), QUASAR 2

O=c1[nH]cc(F)c(=O)[nH]1 [5-FU, 5-fluorouracil]
share of drug degraded in the liver by DPYD prior to activation [1]: ~80%
mortality (Grade 5, CTCAE version 3.0) associated with use ([2]; overall): 0.5-1.0%
patients who suffer substantial toxicities (Grade 3 or above, CTCAE version 3.0) ([2]; patients administered 5-FU-based therapy): 10-30%
fatality rate ([2]; patients with colorectal cancer, serious toxicities from 5-FU): approximately 1%
share of patients who experienced serious (CTCAE≥grade 3) toxicities ([2]; patients with colorectal cancer): Approximately a third

CCCCCOC(=O)Nc1nc(=O)n(C2OC(C)C(O)C2O)cc1F (centres unmarked) [capecitabine, pentyl [1-(3,4-dihydroxy-5-methyltetrahydrofuran-2-yl)-5-fluoro-2-oxo-1H-pyrimidin-4-yl]carbamate]
Diarrhoea, Grade 0-2 (%) [3, 4]: 92.9%
Diarrhoea, Grade 3-4 (%) [3, 4]: 6.9%
Global toxicity, Grade 0-2 (%) [3, 4]: 84.6%
Global toxicity, Grade 3-4 (%) [3, 4]: 15.3%
Haematological toxicity, Grade 0-2 (%) [3, 4]: 98.4%
Haematological toxicity, Grade 3-4 (%) [3, 4]: 1.3%
Hand-foot syndrome, Grade 0-2 (%) [3, 4]: 91.4%
Hand-foot syndrome, Grade 3-4 (%) [3, 4]: 8.3%
Mucositis, Grade 0-2 (%) [3, 4]: 98.7%
Mucositis, Grade 3-4 (%) [3, 4]: 1.1%
Vomiting, Grade 0-2 (%) [3, 4]: 98.7%
Vomiting, Grade 3-4 (%) [3, 4]: 0.9%
share of patients who suffer dose-limiting levels of drug-induced adverse events ([2]; capecitabine patients): approximately one third
mortality from rapid onset of toxicity relative to infusional and bolus 5-FU regimens (0.5% to 2%) ([2]; capecitabine schedules): about half that number

bevacizumab: given with capecitabine in one QUASAR2 arm (7.5 mg/kg every three weeks)
higher incidence of hypertension and proteinuria ([3]; QUASAR2, capecitabine plus bevacizumab arm versus capecitabine alone): ~10 fold
